Laboratory results published in patent publication US20050063969A1, “Assay” (priority 2001, published 2005).

Assays:
Assay type in all cases: cell-based
K562-αvβ5 cells = test: Adhesion of K562-αvβ5 cells to wells coated with GST-LAPβ3 (amino acids 259-269); settings: wells coated with 0.5 μg GST-LAPβ3; 0.5 mM MnCl2; antibodies 1 μg/well; FIG. 4
Experimental: (§1) K562-αvβ5 cells were allowed to attach to wells coated with 0.5 μg of GST-LAPμ3 (amino acids 259-269) in the presence of 0.5 mM MnCl2. Specific blocking antibodies (1 μg/well) and compounds were added as indicated. Each data point represents the mean±SD of duplicate points, and is representative of at least three identical experiments.
(§2) K562-WT (wild-type), K562-αvβ6, K562-αvβ5 and K562-αvβ3 cells were maintained in 1:1 RPMI 1640, Hepes modification (Gibco): Dulbecco's […] (DMEM), Hepes modification (Sigma) supplemented with L-glutamine (Gibco) and 10% fetal calf serum (FCS). In addition K562-αvβ3, K562-αvβ5, and K562-αvβ6 cells were supplemented with geneticin (G418, Gibco) at 1 mg/ml. All transfected cells were generated by transfecting K562 cells with pCDNA-3 constructs containing individual integrin cDNAs, using lipofectamine plus (Gibco BRL).
(§3) All proteins were coated onto Maxisorp 96-well plates (Nunclon) overnight at 4° C. […] For quantitation cells were visualised by staining with 0.1% crystal violet (Sigma) for 10 minutes then lysed in 0.5% Triton X-100 (Sigma) and read optically at 570 nm in a Wallac Victor plate reader.
(§4) The region of LAPβ3 corresponding to amino acids 259 to 269 (^259HGRGDLGRLKK^269) was expressed as a GST fusion protein and tested for the ability to support adhesion of K562-αvβ3, K562-αvβ5, and K562-αvβ6 cells. […]

K562-αvβ3 cells = test: Adhesion of K562-αvβ3 cells to wells coated with GST-LAPβ3 (amino acids 259-269); settings: wells coated with 0.5 μg GST-LAPβ3; 2 mM MgCl2; antibodies 1 μg/well; FIG. 2
Experimental: as §1, with “K562-αvβ3 cells” for “K562-αvβ5 cells”, “of GST-LAPβ3” for “of GST-LAPμ3”, “of 2” for “of 0.5”, “mM MgCl2.” for “mM MnCl2.”
as §2, §3, §4

K562-αvβ6 cells = test: Adhesion of K562-αvβ6 cells to wells coated with GST-LAPβ3 (amino acids 259-269); settings: wells coated with 0.5 μg GST-LAPβ3; 2 mM MgCl2; antibodies 1 μg/well; FIG. 3
Experimental: as §1, with “K562-αvβ6 cells” for “K562-αvβ5 cells”, “of GST-LAPβ3 (amino-acids” for “of GST-LAPμ3 (amino acids”, “of 2” for “of 0.5”, “mM MgCl2.” for “mM MnCl2.”
as §2, §3, §4

Compound	Inhibition of K562-αvβ5 cell adhesion to GST-LAPβ3 (amino acids 259-269) (K562-αvβ5 cells)	Blocking of K562-αvβ3 cell adhesion to GST-LAPβ3 (amino acids 259-269) (K562-αvβ3 cells)	Blocking of K562-αvβ6 cell adhesion to GST-LAPβ3 (amino acids 259-269) (K562-αvβ6 cells)
CN(Cc1nc2ccccc2[nH]1)C(=O)c1ccc2c(c1)CN(C)C(=O)[C@H](CC(=O)O)N2 [SB223245]	total blockade	blocked	–
Ac—RTDLDSLRT-NH2 (Ac-RTDLDSLRT-NH2) [GW603365A, described in WO 0037487]	–	–	blocked
